Laboratory results published in ChEMBL document CHEMBL1201862, “PubChem BioAssay data set” (2004).
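Dose response: 5 concentrations. Exposure: 48 h. Format: 96-well plates. Endpoint: linear interpolation; highest concentration if not reached. GI50 is the concentration that inhibits growth by half.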 Activity calls are given as the source filed them. Rule as the data show it: active = GI50 up to about 1.1 µM and inactive = higher.

Tests used:
Experiment in all cases: DTP human tumour cell line panel, 48 h
[1] = tested on: HCC 2998
[2] = tested on: KM12
[3] = tested on: UO-31
[4] = tested on: RXF 393
[5] = tested on: HCT-15
[6] = tested on: Malme-3M
[7] = tested on: COLO 205
[8] = tested on: KM-20L2
[9] = tested on: OVCAR-4
[10] = tested on: DMS-114
[11] = tested on: RPMI-8226
[12] = tested on: HOP-62
[13] = tested on: SF-268
[14] = tested on: SK-OV-3
[15] = tested on: EKVX
[16] = tested on: U-251
[17] = tested on: NCI-H522
[18] = tested on: UACC-62
[19] = tested on: SK-MEL-5
[20] = tested on: OVCAR-5

SMILES | GI50 [1] | GI50 [2] | GI50 [3] | GI50 [4] | GI50 [5] [µM] | GI50 [6] | GI50 [7] | GI50 [8] | GI50 [9] | GI50 [10] | GI50 [11] | GI50 [12] | GI50 [13] | GI50 [14] | GI50 [15] | GI50 [16] | GI50 [17] | GI50 [18] | GI50 [19] | GI50 [20]
O=C1c2ccccc2C(=O)N1/N=C\c1ccc(Br)cc1 | > 10 µM (inactive) | > 10 µM (inactive) | > 10 µM (inactive) | > 10 µM (inactive) | > 10 | > 10 µM (inactive) | > 100 µM (inactive) | > 10 µM (inactive) | > 10 µM (inactive) | > 10 µM (inactive) | > 10 µM (inactive) | > 10 µM (inactive) | > 10 µM (inactive) | > 100 µM (inactive) | > 10 µM (inactive) | > 100 µM (inactive) | > 100 µM (inactive) | > 10 µM (inactive) | > 10 µM (inactive) | > 10 µM (inactive)
N#CN=C(NCc1ccccc1)NCc1ccccc1 | > 100 µM (inactive) | > 100 µM (inactive) | > 100 µM (inactive) | > 48.6 µM (inactive) | > 40.3 | > 100 µM (inactive) | > 42.9 µM (inactive) | > 100 µM (inactive) | > 100 µM (inactive) | > 38.3 µM (inactive) | > 100 µM (inactive) | > 100 µM (inactive) | 18.2 µM (inactive) | > 100 µM (inactive) | > 100 µM (inactive) | > 48.2 µM (inactive) | > 100 µM (inactive) | > 100 µM (inactive) | > 100 µM (inactive) | > 100 µM (inactive)
O=C1C[C@@H]2[C@@H](CCC23CC3)N1 | > 100 µM (inactive) | > 100 µM (inactive) | > 100 µM (inactive) | > 100 µM (inactive) | – | > 100 µM (inactive) | > 100 µM (inactive) | > 100 µM (inactive) | > 100 µM (inactive) | > 100 µM (inactive) | > 100 µM (inactive) | > 100 µM (inactive) | > 100 µM (inactive) | > 100 µM (inactive) | > 100 µM (inactive) | > 100 µM (inactive) | > 100 µM (inactive) | > 100 µM (inactive) | > 100 µM (inactive) | > 100 µM (inactive)
CCCCCCCCCCC(=O)CC(=O)c1c(O)cccc1O | 27.8 µM (inactive) | 33 µM (inactive) | 29 µM (inactive) | 26.3 µM (inactive) | 47.4 | 35.9 µM (inactive) | 31 µM (inactive) | 50.2 µM (inactive) | 43.1 µM (inactive) | 26.1 µM (inactive) | 21.1 µM (inactive) | 24.1 µM (inactive) | 41.1 µM (inactive) | 38.1 µM (inactive) | 38.5 µM (inactive) | 21.5 µM (inactive) | 28.1 µM (inactive) | 41.9 µM (inactive) | 28.4 µM (inactive) | 19.7 µM (inactive)
CSC(=S)c1ccc(C(=S)SC)cc1 | > 100 µM (inactive) | > 100 µM (inactive) | > 100 µM (inactive) | > 100 µM (inactive) | > 100 | > 100 µM (inactive) | > 100 µM (inactive) | > 100 µM (inactive) | > 100 µM (inactive) | > 100 µM (inactive) | > 100 µM (inactive) | > 100 µM (inactive) | > 100 µM (inactive) | > 100 µM (inactive) | > 100 µM (inactive) | > 100 µM (inactive) | > 100 µM (inactive) | > 100 µM (inactive) | > 100 µM (inactive) | > 100 µM (inactive)
CC(C)N(C(=O)C12C3C4C5(C#N)C3C1(I)C5C42I)C(C)C (centres undefined) | > 100 µM (inactive) | > 100 µM (inactive) | > 100 µM (inactive) | > 100 µM (inactive) | > 41.9 | > 100 µM (inactive) | > 42 µM (inactive) | > 66.7 µM (inactive) | > 45.5 µM (inactive) | > 42.5 µM (inactive) | > 49.8 µM (inactive) | > 100 µM (inactive) | > 100 µM (inactive) | > 100 µM (inactive) | > 100 µM (inactive) | > 84.1 µM (inactive) | > 100 µM (inactive) | > 100 µM (inactive) | > 100 µM (inactive) | > 100 µM (inactive)
Cc1ccccc1SC(/C=C/NNC1=NN=C(c2ccccc2)C(c2ccccc2)N1)c1ccccc1 (centres undefined) | 40.6 µM (inactive) | 28.4 µM (inactive) | 16.9 µM (inactive) | 11.1 µM (inactive) | 34 | 22.4 µM (inactive) | 36.4 µM (inactive) | 52 µM (inactive) | 2.99 µM (inactive) | 22.9 µM (inactive) | 27.5 µM (inactive) | 17.7 µM (inactive) | 24.9 µM (inactive) | 22.4 µM (inactive) | 27.2 µM (inactive) | 24.9 µM (inactive) | 33.8 µM (inactive) | 29.4 µM (inactive) | 26.1 µM (inactive) | > 100 µM (inactive)
